Reference: patent US20030055070A1, “Phosphodiesterase type 5 (PDE5) inhibitors for the treatment of selective serotonin reuptake inhibitor (SSR) induced sexual dysfunction” (priority 1999, published 2003)

What was measured:
men with ED = assay: Retrospective subanalysis of 10 double-blind, placebo-controlled sildenafil citrate studies, IIEF questionnaire; patients without SSRIs; type: in vivo, human
Protocol: (§1) A retrospective analysis of combined data from 10 Phase II/III double-blind, placebo-controlled, fixed- and flexible-dose trials identified a subgroup of men with ED who were receiving 5-200 mg of sildenafil citrate (S) or placebo (P) and taking concomitant SSRIs. Studies of sildenafil citrate in various populations have been reported. For example, Goldstein et al. report the results of two sildenafil citrate studies in men. In one study 532 men were treated with oral sildenafil citrate (25, 50 or 100 mg) or placebo over 24 weeks to study dose-response. In the second study 329 men were treated with sildenafil citrate or placebo with dose escalation to 100 mg based on efficacy and tolerance. Additional studies may be found in the following references: Derry et al. (1998), Dinsmore et al. (1999), Goldstein et al. (1998), Padma-Nathan et al. (1998) and Rendell et al. (1999). Analysis of efficacy (ANCOVA) included responses to several questions including question 9 (Q9; frequency of ejaculation) and question 10 (Q10; frequency of orgasm) of the International Index of Erectile Function. In the International Index of Erectile Function, sexual activity includes intercourse, caressing, foreplay and masturbation; sexual intercourse is defined as vaginal penetration of a partner by the respondent; sexual stimulation includes situations like foreplay with a partner, looking at erotic pictures, etc.; ejaculation: the ejection of semen from the penis (or the feeling of this). Question 9 is, “Over the past 4 weeks, when you had sexual stimulation or intercourse how often did you ejaculate?” Question 10 is, “Over the past 4 weeks, when you had sexual stimulation or intercourse how often did you have the feeling of orgasm (with or without ejaculation)? Scores are based on a scale from 1 (almost never or never) to 5 (almost always or always), with 0 representing “No sexual stimulation/intercourse.” Each question was scored from 0 to 5, with lower scores indicating greater sexual dysfunction. Results are expressed as mean baseline score's standard error of mean, (±SEM) and mean change from baseline (±SEM) at the end of treatment (6 to 24 weeks).
(§2) This was a retrospective subanalysis of combined data from 10 double-blind, placebo-controlled, fixed- and flexible-dose studies with sildenafil citrate for the treatment of ED. The subanalysis was conducted to assess whether treatment with sildenafil citrate can alleviate symptoms of sexual dysfunction in men taking SSRIs. The studies lasted for 6 to 24 weeks and dosing of the study drug ranged from 5 mg to 200 mg of sildenafil citrate or matching placebo. Patients were instructed to take medication approximately 1 hour before anticipated sexual activity but not more than once daily.
(§3) A total of 3414 patients were randomized to treatment. The main inclusion criteria were as follows: Men aged 18 years and older; Clinical diagnosis of ED of more than 6 months' duration; Stable relationship with a female partner for at least 6 months prior to the study; and written informed consent. The main exclusion criteria were as follows: Penile anatomical deformities; Major illness or uncontrolled psychiatric disorder; Concomitant treatment with nitrates or nitric oxide donors, estrogens, androgens, or anticoagulants. Other treatments for sexual dysfunction were not allowed during the study.
Efficacy was assessed at the end of treatment (6 to 24 weeks) by responses to the validated 15-item International Index of Erectile Function (IIEF) questionnaire. Rosen et al. (1997) “The International Index of Erectile Function (IIEF): a Multidimensional Scale for Assessment of Erectile Dysfunction,” Urology 49:822-830. Responses were graded on a scale of 1 (“almost never/never”) to 5 (“almost always/always”), with a score of 0 indicating no sexual activity. Efficacy results were evaluated using analysis of covariance (ANCOVA) and were expressed as mean scores.

[1] = system: men with ED taking concomitant SSRIs; assay: Retrospective subanalysis of 10 double-blind, placebo-controlled sildenafil citrate studies, IIEF questionnaire; patients taking concomitant SSRIs; type: in vivo, human
Protocol: as §1, §2, §3
Efficacy was assessed at the end of treatment (6 to 24 weeks) by responses to the validated 15-item International Index of Erectile Function (IIEF) questionnaire. Rosen et al. (1997) “The International Index of Erectile Function (IIEF): a Multidimensional Scale for Assessment of Erectile Dysfunction,” Urology 49:822-830. Responses were graded on a scale of 1 (“almost never/never”) to 5 (“almost always/always”), with a score of 0 indicating no sexual activity. Efficacy results were evaluated using analysis of covariance (ANCOVA) and were expressed as mean scores. […]

[2] = system: SSRI induced sexual dysfunction in men and women; conditions: nine men, five women; twelve on SSRIs, two on mirtazapine; all patients; cited from earlier work
[3] = system: SSRI induced sexual dysfunction; conditions: four patients (two men, two women); all reported; cited from earlier work
[4] = system: SSRI-induced sexual side effects; conditions: case studies of patients taking SSRIs; cited from earlier work
[5] = no SSRI, end of treatment (6 to 24 weeks), 5-200 mg, scale 0-5
[6] = no SSRI, p<0.0001 versus placebo
[7] = without SSRIs, 5-200 mg, end of treatment (6 to 24 weeks), scale 0-5
[8] = without SSRIs, baseline, scale 0-5
[9] = with SSRIs, 5-200 mg, end of treatment (6 to 24 weeks), scale 0-5
[10] = with SSRIs, baseline, scale 0-5

CCCc1nn(C)c2c(=O)[nH]c(-c3cc(S(=O)(=O)N4CCN(C)CC4)ccc3OCC)nc12.O=C(O)CC(O)(CC(=O)O)C(=O)O [Sildenafil citrate, 1-[[3-(6,7-dihydro-1-methyl-7-oxo-3-propyl-1H-pyrazolo[4,3-d]pyrimidin-5-yl)-4-ethoxyphenyl]sulfonyl]-4-methylpiperazine citrate]
Improvement of score, erection confidence (Question 15) (men with ED; no SSRI, baseline to endpoint): 76% | Improvement of score, erection firmness (Question 2) (men with ED; no SSRI, baseline to endpoint): 78% | Improvement of score, erection frequency (Question 1) (men with ED; no SSRI, baseline to endpoint): 60% | Improvement of score, maintenance ability (Question 5) (men with ED; no SSRI, baseline to endpoint): 117% | Increase of mean score, intercourse enjoyment (Question 8) (men with ED; no SSRI, baseline to endpoint): 70% | Increase of mean score, intercourse frequency (Question 6) (men with ED; no SSRI, baseline to endpoint): 57% | Increase of mean score, intercourse satisfaction (Question 7) (men with ED; no SSRI, baseline to endpoint): 93% | Increase of mean score, overall satisfaction with sex life (Question 13) (men with ED; no SSRI, baseline to endpoint): 68% | Increase of mean score, satisfaction with the relationship (Question 14) (men with ED; no SSRI, baseline to endpoint): 40% | IIEF Question 1 erection frequency, baseline mean score (men with ED; no SSRI, baseline, scale 0-5): 2.27 ± 0.04 | IIEF Question 2 erection firmness, baseline mean score (men with ED; no SSRI, baseline, scale 0-5): 1.97 ± 0.03 | IIEF Question 5 maintenance ability, baseline mean score (men with ED; no SSRI, baseline, scale 0-5): 1.54 ± 0.03 | IIEF Question 6 intercourse frequency, baseline mean score (men with ED; no SSRI, baseline, scale 0-5): 2.00 ± 0.03 | IIEF Question 7 intercourse satisfaction, baseline mean score (men with ED; no SSRI, baseline, scale 0-5): 1.75 ± 0.03 | IIEF Question 8 intercourse enjoyment, baseline mean score (men with ED; no SSRI, baseline, scale 0-5): 1.86 ± 0.03 | IIEF Question 13 overall satisfaction, baseline mean score (men with ED; no SSRI, baseline, scale 0-5): 2.00 ± 0.02 | IIEF Question 14 relationship satisfaction, baseline mean score (men with ED; no SSRI, baseline, scale 0-5): 2.63 ± 0.03 | IIEF Question 15 erection confidence, baseline mean score (men with ED; no SSRI, baseline, scale 0-5): 1.76 ± 0.02 | Increase of mean score from mean baseline score, ability to achieve an erection (Question 3) (men with ED; no SSRI, end of treatment): 80% | Increase of mean score from mean baseline score, ability to maintain an erection (Question 4) (men with ED; no SSRI, end of treatment): 107% | IIEF Question 1 erection frequency, endpoint mean score (men with ED; [5]): 3.63 ± 0.04 | IIEF Question 2 erection firmness, endpoint mean score (men with ED; [5]): 3.50 ± 0.04 | IIEF Question 5 maintenance ability, endpoint mean score (men with ED; [5]): 3.35 ± 0.04 | IIEF Question 6 intercourse frequency, endpoint mean score (men with ED; [5]): 3.13 ± 0.03 | IIEF Question 7 intercourse satisfaction, endpoint mean score (men with ED; [5]): 3.38 ± 0.04 | IIEF Question 8 intercourse enjoyment, endpoint mean score (men with ED; [5]): 3.16 ± 0.03 | IIEF Question 13 overall satisfaction, endpoint mean score (men with ED; [5]): 3.36 ± 0.03 | IIEF Question 14 relationship satisfaction, endpoint mean score (men with ED; [5]): 3.68 ± 0.03 | IIEF Question 15 erection confidence, endpoint mean score (men with ED; [5]): 3.10 ± 0.03 | Frequency of ejaculation (Question 9), mean score versus placebo, in words (men with ED; [6]): increased significantly | Frequency of orgasm (Question 10), mean score versus placebo, in words (men with ED; [6]): increased significantly | Important aspects of sexual function, in words (men with ED; patients with ED without concomitant SSRI): significantly improved | IIEF Q9 frequency of ejaculation, mean change from baseline ± SEM (men with ED; [7]): 0.90 ± 0.04 | IIEF Q10 frequency of orgasm, mean change from baseline ± SEM (men with ED; [7]): 0.93 ± 0.04 | IIEF Q9 frequency of ejaculation, mean baseline score ± SEM (men with ED; [8]): 2.74 ± 0.04 | IIEF Q10 frequency of orgasm, mean baseline score ± SEM (men with ED; [8]): 2.65 ± 0.04 | Frequency of orgasm (Question 10), effect versus placebo, in words ([1]; concomitant SSRI, p<0.01 versus placebo, citrate): significantly improved | Frequency of ejaculation (Question 9), effect versus placebo, in words ([1]; concomitant SSRI, p<0.02 versus placebo, citrate): significantly improved | Important aspects of sexual function, in words ([1]; patients with ED with concomitant SSRI): significantly improved | IIEF Q9 frequency of ejaculation, mean change from baseline ± SEM [1, 9]: 1.16 ± 0.25 | IIEF Q10 frequency of orgasm, mean change from baseline ± SEM [1, 9]: 1.34 ± 0.27 | IIEF Q9 frequency of ejaculation, mean baseline score ± SEM [1, 10]: 2.42 ± 0.23 | IIEF Q10 frequency of orgasm, mean baseline score ± SEM [1, 10]: 2.24 ± 0.22 | Sexual functioning, in words [2]: statistically significant improvement | Effect on SSRI induced sexual dysfunction, in words [3]: rapid reversal of SSRI induced sexual dysfunction | Response to treatment, in words [4]: responding well
